From the NIST ThermoML archive (doi:10.1021/je400512u)

Experiment: xn = mol fraction of the nth substance listed
Conditions: 101 kPa, Liquid; for speed of sound: Pulse-echo method; for mass density: Vibrating tube method; for viscosity: Concentric cylinders viscometry

CCCCCCCO [heptan-1-ol] + C1COCCO1
Conditions | mass density, 303.15 K [kg/m3] | mass density, 308.15 K [kg/m3] | speed of sound, 303.15 K [m/s] | speed of sound, 308.15 K [m/s] | viscosity, 308.15 K [mPa·s]
x1 = 0.0505 | 1003.12 | 997.647 | – | 1296.7 | 1.034
x1 = 0.1 | 985.996 | 980.695 | – | 1291.6 | 1.055
x1 = 0.1501 | 970.647 | 965.496 | – | 1287.8 | 1.093
x1 = 0.2 | 956.055 | 951.048 | – | 1284.7 | 1.129
x1 = 0.25 | 942.208 | 937.338 | – | 1282.2 | 1.183
x1 = 0.2997 | 929.584 | 924.84 | – | 1280.4 | 1.247
x1 = 0.3502 | 917.951 | 913.324 | – | 1279.4 | 1.324
x1 = 0.4001 | 907.108 | 902.591 | – | 1278.5 | 1.403
x1 = 0.4498 | 896.876 | 892.463 | – | 1278.2 | 1.497
x1 = 0.4998 | 887.314 | 882.999 | – | 1278.4 | 1.617
x1 = 0.55 | 878.474 | 874.248 | 1296.7 | 1278.6 | 1.739
x1 = 0.6004 | 870.13 | 865.991 | 1297.3 | 1279.4 | 1.881
x1 = 0.6501 | 862.139 | 858.083 | 1298.3 | 1280.5 | 2.044
x1 = 0.7002 | 854.631 | 850.647 | 1299.3 | 1281.7 | 2.234
x1 = 0.7493 | 847.338 | 843.436 | 1300.7 | 1283.3 | 2.44
x1 = 0.7999 | 840.45 | 836.632 | 1301.7 | 1284.4 | 2.696
x1 = 0.85 | 834.009 | 830.254 | 1304.3 | 1287.2 | 2.985
x1 = 0.8998 | 827.706 | 824.01 | 1306.1 | 1289 | 3.338
x1 = 0.9498 | 821.704 | 818.076 | 1308.3 | 1291.4 | 3.747
x1 = 1 | 816.183 | 812.61 | 1311.3 | 1294.5 | 4.27
